From patent US20130129675A1, “INTERFERON THERAPIES IN COMBINATION WITH BLOCKADE OF STAT3 ACTIVATION” (BOARD OF REGENTS, THE UNIVERSITY OF TEXAS SYSTEM, priority 2009, published 2013)

What was measured:
[1] = tested on: intracerebral B16 melanoma / LMD; experiment: Etiology of death (LMD or tumor progression) in intracerebral B16 model; type: in vivo, C57BL/6J mice; details: for animals with LMD at death: autopsy at treatment failure, control 75%
Excerpt: Both the control group (n=8) and in those treated with a sub-therapeutic dose of WP1193 (n=9) had macroscopic evidence of LMD, 75% and 67%, respectively, (Data not shown). In contrast, in those mice treated with IFN-α (n=6) or the combination of IFN-α and WP1193 (n=4), only 17% in the former and none of the animals treated with the combination died of LMD (FIG. 5). As would be expected, in a sub-analysis within each treatment group, mice that developed LMD died sooner than did those that died of tumor. Specifically, in the control group, median survival was 16.7±0.7 days in those mice that developed LMD and 18.5±1.5 days in those that died of tumor. Furthermore, in the sub-therapeutic WP1193 group, median survival was 17.7±0.3 days in mice that developed LMD and 20±2.1 days in those that died of tumor. In contrast, within the IFN-α treatment group, the median survival of mice with progressive tumor was 25.8±2.5 days, which was further increased to 29.7±5.5 days in the combination treatment group. Within individual treatment groups there was insufficient power to draw statistically meaningful conclusions; however when we assessed all mice who died of LMD, the median survival was 16.9±0.4 days compared with 24.7±2 days for mice dying of tumor progression (P=0.0006), indicating this model system conforms to the negative prognostic influence of LMD observed in human patients.

Tregs (CD4+Foxp3+) = experiment: Inhibition of Tregs in vivo; parameters: species or system mice; details: for number of Foxp3+ Tregs in the thymus, lymph nodes, or spleen: alone or in combination; for % of CD4+ Foxp3+ Cells: bone marrow, control 24.5; for % of CD4+ Foxp3+ Cells / inhibition of the number of Tregs (CD4+Foxp3+) in the bone marrow: non-tumor bearing mice treated for 16 days; for inhibition of the number of Tregs (CD4+Foxp3+) in the peripheral blood / inhibition of the number of Tregs (CD4+Foxp3+) in the bone marrow: compared with control
Method: Determination of inhibition of Tregs in vivo. […] Single-cell suspensions were prepared from bone marrows, lymph nodes, spleens, thymuses and peripheral blood of mice. Single cells were surface-stained by FITC-conjugated anti-CD4 (L3T4), PerCP-conjugated anti-CD8 (53-6.7) and APC-conjugated anti-CD25 (PC61), and the cells were further subjected to intracellular staining with PE-conjugated mAbs to mouse FoxP3 (clone FJK-16s; eBioscience, San Diego, Calif.) using staining buffers and conditions specified by the manufacturer.
In vivo treatment of mice with IFN-α and WP1193 inhibits bone marrow-derived Tregs but combinational therapy is not synergistic. To ascertain the in vivo effects of IFN-α and WP1193, and in combination on Tregs, non-tumor bearing mice were treated for 16 days.

serum cytokines = experiment: Serum cytokine levels (Bio-Plex); type: in vivo, C57BL/6J mice; details: for IFN-gamma Concentration: control 1.5; for IL-1B Concentration: control 40.1; for TNF alpha Concentration: control 60.5
Method: Determination of serum cytokine levels. Groups of non-tumor bearing 4- to 6-week-old female mice were treated with either IFN-α or “empty” plasmid control, WP1193, or IFN-α in combination with WP1193 as described in FIG. 13. Blood was collected through a tail vein from mice 9 and 16 days after the first WP1193 administration. […] The assay was run according to the manufacturer's instruction (Bio-Rad) by the Immunology Core Service at MD Anderson Cancer Center (Houston, Tex.).
This experiment was reproduced twice in its entirety with identical findings.

[2] = tested on: NK1.1+ NK cells from splenocytes; experiment: NK cell activating receptors (flow cytometry); type: cell-based, mice; details: WP1193 2 μM, IFN-α 20 ng/ml, 24 hours (FIGS. 6C and 6D)
Method: Spleens from 4- to 6-week-old female mice were harvested and disassociated into a single-cell suspension as described above. Splenocytes were seeded at a density of 4×10^6 cells/well in 24-well culture plates and cultured with the RPMI 1640 medium in absence or presence of WP1193 (2 μM) and/or INF-α (20 ng/ml) for 24 hours. Afterwards, the cells were harvested and washed twice in PBS with 5% FCS, resuspended in staining buffer and labeled with FITC- or PE-conjugated anti-mouse NK1.1 (eBioscience, San Diego, Calif.) to identify the NK population. […] Following incubation, the cells were washed twice with FACS buffer and then analyzed with a BD FACSCalibur with gates set for viable splenocytes.
Because we observed NK and CD8+ T cell-mediated anti-tumor cytotoxicity were enhanced with combinational therapy, to ascertain if either IFN-α, WP1193 or both were augmenting the expression of MHC or NK activating receptors or their ligands, splenocytes and B16 cells were treated with RPMI 1640 medium (control), WP1193 (2 μM), IFN-α (20 ng/ml), or IFN-α (20 ng/ml)+WP1193 (2 μM) for 24 hours. The NK-activating ligands (Rae-1, H60 and CD155) and MHC (I and II) on B16 cells and the NK-activating receptors (NKG2D, KLRD1, NKp46 and DNAM-1) on NK1.1+ NK cells were analyzed by flow cytometric analysis.

[3] = sub-analysis within treatment group

| Compound | animals with LMD at death [1] [%] | median survival in mice that developed LMD [1, 3] [days] | median survival in mice that died of tumor [1, 3] [days] | number of Foxp3+ Tregs in the thymus, lymph nodes, or spleen (Tregs (CD4+Foxp3+)) | % of CD4+ Foxp3+ Cells (Tregs (CD4+Foxp3+)) [%] | inhibition of the number of Tregs (CD4+Foxp3+) in the peripheral blood (Tregs (CD4+Foxp3+)) [%] | inhibition of the number of Tregs (CD4+Foxp3+) in the bone marrow (Tregs (CD4+Foxp3+)) [%] | IFN-gamma Concentration (serum cytokines) | IL-1B Concentration (serum cytokines) [pg/mL] | TNF alpha Concentration (serum cytokines) [pg/mL] | NKG2D, KLRD1, NKp46 and DNAM-1 on NK cells [2] | suppressive activity of sorted Tregs (Tregs (CD4+Foxp3+); FoxP3-GFP reporter mouse, IFN-α-treated or control) |
| --- | --- | --- | --- | --- | --- | --- | --- | --- | --- | --- | --- | --- |
| N#C/C(=C\c1cccc(Br)n1)C(=O)N[C@H](c1ccccc1)C1CC1 [WP1193, (S,E)-3-(6-bromopyridin-2-yl)-2-cyano-N-(cyclopropyl(phenyl)methyl)acrylamide] | 67 | 17.7 ± 0.3 | 20 ± 2.1 | did not inhibit | 16.8 | 20 | 31 | Not detected | 20.0 | 60.0 | did not appear to be up-regulated |  |
| IFN-α | 17 |  | 25.8 ± 2.5 | did not inhibit | 5.2 | 46 | 78 | 20.2 pg/mL | 41.3 | 98.7 | did not appear to be up-regulated | did not see a decrease in the suppressive activity |
